We go through six molecules from ChEMBL document CHEMBL1201862, “PubChem BioAssay data set” (2004).

Test [1] addresses Peroxisome proliferator-activated receptor gamma/Nuclear receptor coactivator 1 (Homo sapiens, UniProt P37231). The experiment in a line: TR-FRET dose response biochemical High Throughput Screening assay for agonists of the steroid receptor coactivator 1 (SRC-1) recruitment by the peroxisome proliferator-activated receptor gamma (PPAR gamma): non-selective agonists. [Related pubchem assays (depositor defined):AID1300, AID1808, AID504735, AID631]. It counts as protein assay. For orientation: In TR-FRET formats the signal depends on donor and acceptor labels being close together.

In test [2] the target is Peroxisome proliferator-activated receptor gamma/Nuclear receptor coactivator 3 (Homo sapiens, UniProt P37231). The experiment in a line: TR-FRET dose response biochemical High Throughput Screening assay for agonists of the steroid receptor coactivator 3 (SRC-3) recruitment by the peroxisome proliferator-activated receptor gamma (PPAR gamma): non-selective agonists. [Related pubchem assays: 1301 (Confirmation screen.), 1048 (Primary screen.)]. The class given is functional.

Test [3] deals with Peroxisome proliferator-activated receptor gamma/Nuclear receptor coactivator 2 (Homo sapiens, UniProt P37231). The experiment in a line: TR-FRET dose response biochemical High Throughput Screening assay for agonists of the steroid receptor coactivator 2 (SRC-2) recruitment by the peroxisome proliferator-activated receptor gamma (PPAR gamma): non-selective agonists. [Related pubchem assays: 1297, 1032 ]. It counts as functional.
Peroxisome proliferator-activated receptor gamma/Nuclear receptor coactivator 2, sequence (P37231 whole entry): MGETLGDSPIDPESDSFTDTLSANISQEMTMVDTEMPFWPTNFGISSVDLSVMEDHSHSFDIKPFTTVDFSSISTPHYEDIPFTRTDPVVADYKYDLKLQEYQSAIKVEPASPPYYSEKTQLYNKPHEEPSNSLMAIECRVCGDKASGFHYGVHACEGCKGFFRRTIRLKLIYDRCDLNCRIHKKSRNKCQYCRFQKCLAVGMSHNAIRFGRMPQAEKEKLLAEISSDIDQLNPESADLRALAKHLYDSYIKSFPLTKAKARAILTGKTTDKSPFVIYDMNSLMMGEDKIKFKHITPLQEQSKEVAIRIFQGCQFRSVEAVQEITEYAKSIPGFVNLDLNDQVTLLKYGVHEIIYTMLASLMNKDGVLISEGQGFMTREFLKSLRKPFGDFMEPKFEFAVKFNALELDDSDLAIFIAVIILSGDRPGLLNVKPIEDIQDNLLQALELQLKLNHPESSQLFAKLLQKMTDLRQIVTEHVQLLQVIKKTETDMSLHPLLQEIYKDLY
Peroxisome proliferator-activated receptor gamma/Nuclear receptor coactivator 2, sequence (Q15596 whole entry, further chain): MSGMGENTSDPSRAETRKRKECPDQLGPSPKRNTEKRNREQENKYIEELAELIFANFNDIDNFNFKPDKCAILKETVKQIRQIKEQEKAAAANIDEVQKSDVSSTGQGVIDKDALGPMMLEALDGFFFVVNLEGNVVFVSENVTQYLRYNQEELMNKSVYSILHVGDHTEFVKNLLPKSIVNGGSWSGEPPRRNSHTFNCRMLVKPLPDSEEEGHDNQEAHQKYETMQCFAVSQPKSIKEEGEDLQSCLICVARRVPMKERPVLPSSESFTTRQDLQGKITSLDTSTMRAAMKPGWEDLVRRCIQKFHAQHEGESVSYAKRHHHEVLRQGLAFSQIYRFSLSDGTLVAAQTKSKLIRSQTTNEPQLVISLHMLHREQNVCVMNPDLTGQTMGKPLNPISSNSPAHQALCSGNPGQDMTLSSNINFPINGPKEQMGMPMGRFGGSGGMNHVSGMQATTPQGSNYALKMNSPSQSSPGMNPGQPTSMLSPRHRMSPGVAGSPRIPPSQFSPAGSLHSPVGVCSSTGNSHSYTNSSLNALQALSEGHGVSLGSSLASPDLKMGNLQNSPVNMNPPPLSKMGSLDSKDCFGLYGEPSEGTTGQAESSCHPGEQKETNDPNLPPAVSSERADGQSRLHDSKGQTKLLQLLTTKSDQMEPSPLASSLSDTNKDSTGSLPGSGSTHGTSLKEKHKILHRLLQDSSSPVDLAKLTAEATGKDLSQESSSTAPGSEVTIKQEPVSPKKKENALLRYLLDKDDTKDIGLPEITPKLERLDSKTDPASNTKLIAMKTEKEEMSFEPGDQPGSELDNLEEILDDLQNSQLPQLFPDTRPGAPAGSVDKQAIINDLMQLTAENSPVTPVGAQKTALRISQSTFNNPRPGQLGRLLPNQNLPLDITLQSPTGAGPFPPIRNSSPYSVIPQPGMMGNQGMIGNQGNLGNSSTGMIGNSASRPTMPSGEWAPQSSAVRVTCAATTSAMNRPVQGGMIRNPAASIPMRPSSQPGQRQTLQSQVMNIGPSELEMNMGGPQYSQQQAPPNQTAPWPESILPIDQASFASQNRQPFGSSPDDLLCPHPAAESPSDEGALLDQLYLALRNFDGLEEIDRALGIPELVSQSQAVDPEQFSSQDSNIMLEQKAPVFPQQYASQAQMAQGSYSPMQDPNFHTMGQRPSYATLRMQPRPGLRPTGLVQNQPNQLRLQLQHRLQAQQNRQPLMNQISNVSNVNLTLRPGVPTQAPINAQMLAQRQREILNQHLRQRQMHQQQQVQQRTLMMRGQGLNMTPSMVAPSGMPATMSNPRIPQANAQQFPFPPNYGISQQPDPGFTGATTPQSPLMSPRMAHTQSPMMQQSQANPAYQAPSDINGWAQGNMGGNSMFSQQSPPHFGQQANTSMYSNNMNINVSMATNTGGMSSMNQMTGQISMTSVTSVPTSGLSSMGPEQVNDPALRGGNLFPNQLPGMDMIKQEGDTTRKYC

Test [4] has as its system Streptococcus sp. 'group A'. Description: Streptococcus pyogenes SK(-)GAS viability under kanamycin – luminescence, BacTiterGlo, confirmation, counter-screen for streptokinase expression inhibitor project, dose response (AID 1900). The class given is functional, organism-based. For orientation: A counterscreen serves to expose hits that act by an unwanted route or on another target.

A further test deals with T1, Streptokinase A (Streptococcus pyogenes serotype M1, UniProt P10520).
T1 sequence (P10520 whole entry): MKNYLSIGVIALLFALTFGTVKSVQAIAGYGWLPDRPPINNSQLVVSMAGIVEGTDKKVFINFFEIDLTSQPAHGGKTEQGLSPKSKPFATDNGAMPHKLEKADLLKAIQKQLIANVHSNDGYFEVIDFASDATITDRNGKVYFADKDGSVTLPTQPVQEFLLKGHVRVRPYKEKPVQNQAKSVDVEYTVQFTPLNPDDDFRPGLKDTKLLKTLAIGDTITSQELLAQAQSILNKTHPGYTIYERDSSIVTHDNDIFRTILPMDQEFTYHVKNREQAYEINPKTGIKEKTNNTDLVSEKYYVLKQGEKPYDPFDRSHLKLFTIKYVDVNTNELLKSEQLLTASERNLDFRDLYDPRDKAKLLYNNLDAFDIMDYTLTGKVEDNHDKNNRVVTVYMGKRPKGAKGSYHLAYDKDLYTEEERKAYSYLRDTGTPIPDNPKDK
Description: viability-normalized secreted streptokinase activity reduction – plasminogen activation absorbance, OD405, dose response (AID 1914).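 Note: secreted streptokinase activity via plasminogen activation per viability signal from cell pellet.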 The class given is functional, Streptococcus pyogenes M1 GAS.

The nature of test [5]: Trypanosoma cruzi growth suppression in host cells – NIH3T3 host cells, beta-gal luminescence, confirmation (AID 2044).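 Note: intracellular parasites grown in NIH/3T3 mouse fibroblasts as host cells; luminescent beta-galactosidase reporter signal from transgenic T. cruzi replicating inside host cells; inhibitors lower the luminescence signal.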 It counts as functional, cell-based.
Test [6] in a line: NIH3T3 cell viability loss – ATP luminescence, mouse fibroblasts, counter-screen, dose response (AID 2010).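 Note: cells exposed to compound for about 90 hours before reading.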 It counts as functional, cell-based.
Another test relates to Streptococcus. The experiment in a line: GAS UMAA2166 growth inhibition – luminescence, BacTiterGlo, counter-screen for streptokinase expression inhibitor project, dose response (AID 1915).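 Note: potency for reduction of bacterial viability or growth.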 It counts as functional, organism-based.
For test [7], the target named is DNA damage-inducible transcript 3 protein (Mus musculus, UniProt P35639). It counts as functional, Cricetulus griseus.
DNA damage-inducible transcript 3 protein, sequence (P35639 whole entry): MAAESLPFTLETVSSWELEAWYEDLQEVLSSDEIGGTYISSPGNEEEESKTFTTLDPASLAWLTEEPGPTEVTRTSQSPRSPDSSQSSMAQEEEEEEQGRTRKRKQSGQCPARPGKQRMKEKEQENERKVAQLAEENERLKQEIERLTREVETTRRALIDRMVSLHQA
The nature of test [8]: NIH-3T3 fibroblast cytotoxicity, dose response, cytotoxicity control, cell-based, fluorescence, Alamar Blue, secondary assay (AID 2327).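 Note: NIH-3T3 mouse fibroblasts cultured with fluconazole at 8 µg/mL.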 It counts as functional. For orientation: The colour change of resazurin is a common sign of viable cells or microbes.
A short description of test [9]: fluconazole-exposed Candida albicans growth modulators – fluorescence, retest, confirmation (AID 2467). It counts as functional, cell-based.
In the next test the target is Cysteine protease ATG4B (Homo sapiens, UniProt Q9Y4P1). The class given is functional.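 Note: Fluorescence-based dose-response confirmation assay measuring inhibition of ATG4B activity.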
Cysteine protease ATG4B, sequence (Q9Y4P1 whole entry): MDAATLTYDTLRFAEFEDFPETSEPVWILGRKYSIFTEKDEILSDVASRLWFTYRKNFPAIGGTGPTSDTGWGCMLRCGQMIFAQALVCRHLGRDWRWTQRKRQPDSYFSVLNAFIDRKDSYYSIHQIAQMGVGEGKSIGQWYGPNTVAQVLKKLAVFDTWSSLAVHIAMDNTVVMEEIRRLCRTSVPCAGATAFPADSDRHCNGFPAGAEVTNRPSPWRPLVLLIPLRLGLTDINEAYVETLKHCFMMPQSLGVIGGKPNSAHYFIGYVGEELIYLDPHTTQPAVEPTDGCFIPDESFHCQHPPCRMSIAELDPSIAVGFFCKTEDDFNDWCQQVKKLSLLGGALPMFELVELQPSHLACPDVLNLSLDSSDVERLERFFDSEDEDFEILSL
The target in the next test is Phospholipase A2 (Homo sapiens, UniProt P04054). The class given is functional.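 Note: confirmatory dose-response counterscreen on phospholipase A2, testing hits that came from an ultra-high-throughput screen for ATG4B inhibitors.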
Phospholipase A2, sequence (P04054 whole entry): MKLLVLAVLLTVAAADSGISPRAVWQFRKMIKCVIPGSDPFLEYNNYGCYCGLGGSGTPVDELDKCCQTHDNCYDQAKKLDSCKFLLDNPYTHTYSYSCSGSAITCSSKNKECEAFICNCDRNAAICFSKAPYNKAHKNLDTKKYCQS
In the next test the target is Trypsin (Sus scrofa, UniProt P00761). Description: trypsin protease activity blockade – biochemical, quenched peptide fluorescence, cherry-pick, selectivity assay for Rce1 protease inhibitor project, dose response (AID 488789).
Trypsin, sequence (P00761 whole entry): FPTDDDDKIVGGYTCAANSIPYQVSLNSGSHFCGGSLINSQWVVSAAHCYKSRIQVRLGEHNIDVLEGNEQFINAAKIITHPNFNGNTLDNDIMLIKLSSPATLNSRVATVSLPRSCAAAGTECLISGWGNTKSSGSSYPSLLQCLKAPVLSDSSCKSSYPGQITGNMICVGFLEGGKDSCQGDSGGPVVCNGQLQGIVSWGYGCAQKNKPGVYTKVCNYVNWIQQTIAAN
The target in another test is T2, CAAX prenyl protease 2 (Saccharomyces cerevisiae S288c, UniProt Q03530).
T2 sequence (Q03530 whole entry): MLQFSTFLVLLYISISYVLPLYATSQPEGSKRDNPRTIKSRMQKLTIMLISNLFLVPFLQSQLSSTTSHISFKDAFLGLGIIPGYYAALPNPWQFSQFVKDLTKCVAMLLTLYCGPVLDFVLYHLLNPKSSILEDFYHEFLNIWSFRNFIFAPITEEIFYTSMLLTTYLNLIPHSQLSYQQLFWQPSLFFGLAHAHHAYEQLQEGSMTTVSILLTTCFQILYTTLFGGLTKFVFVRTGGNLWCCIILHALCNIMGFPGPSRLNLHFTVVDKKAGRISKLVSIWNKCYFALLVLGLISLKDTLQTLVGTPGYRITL
The class given is biochemical.

Each structure is given as a SMILES string. Activity calls are given as the source filed them.

Usually EC50 stands for the concentration at which the effect is half-maximal. By IC50 is commonly meant the concentration that gives 50% inhibition. Broadly, the AC50 is the concentration at which the activity in the assay is half-maximal.

Peroxisome proliferator-activated receptor gamma/Nuclear receptor coactivator 1, sequence (P37231 whole entry): as the sequence (P37231 whole entry) above
Peroxisome proliferator-activated receptor gamma/Nuclear receptor coactivator 1, sequence (Q15788 whole entry, further chain): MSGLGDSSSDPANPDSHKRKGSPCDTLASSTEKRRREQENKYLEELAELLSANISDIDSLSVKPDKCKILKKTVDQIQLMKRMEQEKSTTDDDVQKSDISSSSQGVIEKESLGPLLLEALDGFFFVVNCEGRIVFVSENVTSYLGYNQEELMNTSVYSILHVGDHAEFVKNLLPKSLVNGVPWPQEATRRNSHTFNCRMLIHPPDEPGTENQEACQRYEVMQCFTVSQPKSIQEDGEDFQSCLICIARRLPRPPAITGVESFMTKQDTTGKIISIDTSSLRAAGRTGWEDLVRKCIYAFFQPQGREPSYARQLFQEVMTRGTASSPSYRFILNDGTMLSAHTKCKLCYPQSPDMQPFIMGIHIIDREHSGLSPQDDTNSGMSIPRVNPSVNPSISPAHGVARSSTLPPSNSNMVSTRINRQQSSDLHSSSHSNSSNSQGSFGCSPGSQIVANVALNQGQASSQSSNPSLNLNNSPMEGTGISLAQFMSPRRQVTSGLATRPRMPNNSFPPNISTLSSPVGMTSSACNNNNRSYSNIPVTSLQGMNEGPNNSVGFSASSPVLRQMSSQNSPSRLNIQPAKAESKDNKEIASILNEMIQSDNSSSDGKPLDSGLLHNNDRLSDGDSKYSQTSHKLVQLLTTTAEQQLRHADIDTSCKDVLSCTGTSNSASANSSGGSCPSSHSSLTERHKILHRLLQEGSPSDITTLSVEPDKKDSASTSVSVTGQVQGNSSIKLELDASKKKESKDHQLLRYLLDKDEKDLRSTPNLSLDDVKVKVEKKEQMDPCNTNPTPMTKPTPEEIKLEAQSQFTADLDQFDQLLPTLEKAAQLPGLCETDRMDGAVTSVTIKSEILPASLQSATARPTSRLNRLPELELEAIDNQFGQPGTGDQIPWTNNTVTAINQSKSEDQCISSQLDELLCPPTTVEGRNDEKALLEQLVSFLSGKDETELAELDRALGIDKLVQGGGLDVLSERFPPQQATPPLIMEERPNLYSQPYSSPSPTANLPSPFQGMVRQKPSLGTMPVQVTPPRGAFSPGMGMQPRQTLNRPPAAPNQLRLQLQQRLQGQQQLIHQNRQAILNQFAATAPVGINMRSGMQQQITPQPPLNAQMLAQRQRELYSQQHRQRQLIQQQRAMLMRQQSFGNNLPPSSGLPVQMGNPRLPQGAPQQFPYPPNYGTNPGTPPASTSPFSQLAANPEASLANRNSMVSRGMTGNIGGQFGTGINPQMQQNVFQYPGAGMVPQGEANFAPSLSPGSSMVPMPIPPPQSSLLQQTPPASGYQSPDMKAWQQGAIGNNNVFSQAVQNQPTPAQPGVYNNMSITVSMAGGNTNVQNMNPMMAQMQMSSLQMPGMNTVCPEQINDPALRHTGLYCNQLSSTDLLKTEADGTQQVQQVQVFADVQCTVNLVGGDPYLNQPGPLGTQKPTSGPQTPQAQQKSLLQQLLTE

As to `Cn1c(=O)cc(SCC(=O)N2CCN(c3ccccn3)CC2)c2ccccc21`, the EC50 is > 79.4 µM (inactive) in test [1], > 79.4 µM (not active) in test [2] and > 79.4 µM (not active) in test [3].
With `Cn1c(=O)cc(SCC(=O)N2CCN(c3ccccc3)CC2)c2ccccc21`, the EC50 in test [1] is > 79.4 µM (inactive); in test [2], > 79.4 µM (not active); in [3], 185 µM (not active).
Consider `O=C(Nc1ccccc1-c1nc2ccccc2[nH]1)c1sc2ccccc2c1Cl`, for which the EC50 is 21.3 µM (active) in test [4]; > 150 µM (not active) on Streptokinase A; 2.1 µM (active) in [5]; > 60 µM (inconclusive) in test [6]; > 150 µM (not active) in the test on Streptococcus. Further, the “Absolute IC50 (CHOP)” value in test [7] is 10 µM.
As for `CCOC(=O)c1c(-c2ccccc2)oc2cc(Br)c(O)c(C=O)c12`, the EC50 in test [8] is 4.74 µM (inconclusive); in [9] it was 2.69 µM (active). In addition, the IC50 was 9.27 µM (active) on Cysteine protease ATG4B and 3.36 µM (active) on Phospholipase A2.
With `c1ccc(-c2ccc(-c3cn4c(n3)CCC4)cc2)cc1`, the AC50 at Trypsin is 2.37 µM (active); on CAAX prenyl protease 2, 4.15 µM (active).
With `COc1ccc(-c2nnc(CSc3nc4ccccc4c(=O)n3CC(C)C)o2)cc1OC`, the IC50 on Cysteine protease ATG4B is 6.22 µM (active); at Phospholipase A2, 1.19 µM (active).
